Assay results published in US7781398B2, “Drug comprising synthetic peptide analogs for the treatment of cancer” (Dabur Pharma Ltd., priority 2002, dated 2010).
Non-standard residues stand in square brackets, D forms with d. Residues, ends and D or L forms follow the SMILES beside them. No end group written: not given here. Ac5c = NC1(C(=O)O)CCCC1; Aib = CC(C)(N)C(=O)O

Assays:
Format in all cases: cell-based
[1] = test system: intracellular cAMP in MCF7 breast cancer cells; test: cAMP levels in breast cancer cells (sandwich ELISA); conditions: 30 minutes, final peptide concentration 10^−9M, Forskolin 1 micromolar
Method: Enzyme linked sandwich immunosorbent assay was carried out on breast cancer cells (MCF7) to study the modulation in levels of cAMP upon treatment with the peptides and their combinations. The cells were cultured in sterile 6 well plates at a density of 0.5×10^6/well in DMEM supplemented with 10% FCS, and allowed to adhere overnight.
The cells were co-incubated with Forskolin at a concentration of 1 micromolar. The cells were scraped using a cell scraper and pelleted. The cell pellet was suspended in appropriate resuspension buffer (50 mM Tris, containing EDTA, 0.2 mM phenyl methyl sulfonyl fluoride (PMSF), 1 ug/ml pepstatin and 0.5 microgram/ml leupeptin adjusted to pH 7.4). The cell extracts were transferred to microcentrifuge tubes and centrifuged for 5 minutes at 10000×g. cAMP standards ranging in concentrations from 200 units/ml to 0 units/ml were prepared immediately prior to the start of the assay. Fluorescein isothiocyanate (FITC) conjugated monoclonal antibody directed to cAMP was added to microtitre wells precoated with primary monoclonal antibody against cAMP. 50 ul of sample lysates, and cAMP standards were added in duplicates in the microtitre wells containing both the monoclonals to cAMP. The wells were incubated at room temperature for 2 hours. The microtitre wells were washed three times with appropriate wash buffer (PBS 50 mM, with Tween 0.5%) and the appropriate dilution of anti FITC horse radish peroxidase conjugate was added and incubated for 30 minutes. The microtitre wells were washed thrice with the wash buffer and subsequently with distilled water. Tetra-methylbenzidine was added to each well and incubated in dark for 30 minutes at room temperature. The absorbance was measured in each well at dual wavelength of 450/595 nm within 30 minutes of the addition of stop solution and the amount of cAMP present in the cell samples calculated.

[2] = test system: tyrosine phosphatase in MiaPaCa2 cells; test: Tyrosine phosphatase activity in pancreatic cancer cells (colorimetric); conditions: 30 minutes, final peptide concentration 10^−9M
Method: The quantitation of tyrosine phosphatase was carried out colorimetrically by using their synthetic biotin labeled tyrosine phosphorylated peptide substrates. The enzyme reaction was quenched by the addition of a specific inhibitor, and the phosphorylated and dephosphorylated substrate is immobilized by binding to the streptavidin coated microtitre plate. The fraction of the unmetabolized substrate is determined by its anti phospho tyrosine antibody directly conjugated to peroxidase.
The cells were cultured in sterile 6 well plates at a density of 0.5×10^6/well in DMEM supplemented with 10% FCS, and allowed to adhere overnight. The medium was changed to DMEM. The cells were treated with appropriate concentrations of the peptide and their combinations shown in Table 6, for 30 minutes, such that in each case the final peptide concentration was 10^−9M.
The cells were lysed in appropriate lysis buffer (50 mM Tris, containing EDTA, 0.2 mM PMSF, 1 microgram/microliter pepstatin and 0.5 microgram/microliter leupeptin adjusted to pH 7.4). […]
The quantitation of phosphatase enzyme activity was performed with 30 microliter of specific substrates and the reaction was quenched with the addition of 100 micromolar sodium orthvanadate. […] After 3 washings, 100 microliter of the substrate POD was added to the wells, and the absorbance was read at 405 nm.

[3] = test system: Caspase-3; test: Caspase-3 induction (DEVD-pNA colorimetric) in cancer cells; conditions: each peptide 10^−8M, 6 hours
Method: PA-1 (Ovary), MDA.MB.453 (breast), HT29 (colon) and A549 (lung) cancer cells were cultured in 25 cm^2 tissue culture flasks at 37° C. in a humidified incubator containing 5% CO2. When cultures reached pre-confluence individual peptides of the combination and different combinations of the peptides as shown in Table 8 were added to different flasks such that the final concentration of each peptide in the flask was 10^−8M. The untreated flasks served as controls. The cells were incubated with drug for 6 hours.
After 6 hours of incubation cells were collected by trypsin treatment followed by centrifugation at 2000 r.p.m. for 10 minutes. The supernatant was gently removed and discarded and Lysis Buffer was added to the cell pellet (25 microliter of lysis buffer per 1×10^4 cells I a 15 ml conical tube) and incubated on ice for 10 minutes and centrifuged at 10,000-×g for 1 minute. 50 microliter of supernatant (cell lysate) was transferred to the wells of a 96-well plate. 2× Reaction buffer was prepared by adding 10 microliter of fresh DTT stock per 1 ml of 2× Reaction Buffer. 50 micro liter 2× Reaction Buffer was added to each well followed by addition of 5 micro liter of Caspase-3 colorimetric substrate (DEVD-pNA). The plate was incubated for 1-2 hours at 37° C. Following incubation the plate was read on a microplate reader at 405 nm-wavelength light the level of caspase enzymatic activity in the cell lys ate was directly proportional to the color reaction. The induction of caspase activity by the subcombinations was calculated as a percentage of control using the formula [(Sample OD/Control OD)−1]*100.

Compound | cAMP (% Of Control) [1] [% Of Control] | % Induction of Tyrosine phosphatase [2] [%] | Caspase-3 % INDUCTION ([3]; A549) [%] | Caspase-3 % INDUCTION ([3]; HT29) [%] | Caspase-3 % INDUCTION ([3]; MDA.MB453) [%] | Caspase-3 % INDUCTION ([3]; PA-1) [%]
CC(C)C[C@H](NC(=O)[C@H](Cc1c[nH]cn1)NC(=O)C(C)(C)NC(=O)[C@@H](NC(=O)[C@H](C)NC(=O)[C@H](Cc1c[nH]c2ccccc12)NC(=O)[C@H](CCC(N)=O)NC(=O)[C@H](N)Cc1ccccc1)C(C)C)C(N)=O [SEQ ID NO: 2, D-Phe-Gln-Trp-Ala-Val-Aib-His-Leu-NH2] (H-[dF]QWAV[Aib]HL-NH2; N-terminus assumed) | 15.4 ± 3.0 | – | – | – | – | –
CC(C)C[C@H](NC(=O)[C@@H](Cc1c[nH]c2ccccc12)NC(=O)[C@H](Cc1ccccc1)NC(=O)[C@@H](Cc1c[nH]c2ccccc12)NC(=O)[C@H](CCC(N)=O)NC(=O)[C@@H](Cc1ccccc1)NC(=O)[C@@H]1CCCN1C(=O)[C@H](CCCCN)NC(=O)[C@@H]1CCCN1C(=O)[C@H](N)CCCNC(=N)N)C(=O)NC1(C(N)=O)CCCC1 [SEQ ID NO: 3, D-Arg-Pro-Lys-Pro-D-Phe-Gln-D-Trp-Phe-D-Trp-Leu-Ac5c-NH2] (H-[dR]PKP[dF]Q[dW]F[dW]L[Ac5c]-NH2; N-terminus assumed) | 13.3 ± 4.0 | 14.3 ± 3.5 | 38.5 ± 3.8 | 28.4 ± 2.4 | 22.8 ± 3.8 | 46.2 ± 2.1
C[C@@H](O)[C@H](NC(=O)[C@H]1NC(=O)[C@H]([C@@H](C)O)NC(=O)[C@H](CCCN)NC(=O)[C@@H](Cc2c[nH]c3ccccc23)NC(=O)[C@H](Cc2ccc(O)cc2)NC(=O)[C@@H](NC(=O)[C@H](N)Cc2ccccc2)CSSC1(C)C)C(N)=O [SEQ ID NO: 4, D-Phe-Cys-Tyr-D-Trp-Orn-Thr-Pen-Thr-NH2] | 12.9 ± 5.0 | 15.6 ± 4.5 | 28.4 ± 2.8 | 18.6 ± 1.9 | 18.9 ± 1.0 | 34.8 ± 1.3
LMYPTYLK-OH [SEQ ID NO: 1, Leu-Met-Tyr-Pro-Thr-Tyr-Leu-Lys-OH] | 25.2 ± 4.5 | – | – | – | – | –
